# Key:
# Assay in all cases: NCI 60 cell-line test
# Type in all cases: cell-based, human
# [1] = tested on: 786-0; conditions: 786-0 (Renal Cancer)
# How it was run: (§1)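 MT103, diluted from a DMSO concentrate into medium with gentamicin, is applied for 48 h at 37° C, 5% CO2. Cell protein is measured by sulforhodamine B absorbance at 515 nm.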
# [2] = tested on: ACHN; conditions: ACHN (Renal Cancer)
# How it was run: as §1
# [3] = tested on: CCRF-CEM; conditions: CCRF-CEM (Leukemia)
# How it was run: as §1
# [4] = tested on: DU-145; conditions: DU-145 (Prostate Cancer)
# How it was run: as §1
# [5] = tested on: HL-60 (TB); conditions: HL-60 (TB) (Leukemia)
# [6] = tested on: HT29; conditions: HT29 (Colon Cancer)
# How it was run: as §1
# [7] = tested on: KM12; conditions: KM12 (Colon Cancer)
# How it was run: as §1
# [8] = tested on: M14; conditions: M14 (Melanoma)
# How it was run: as §1
# [9] = tested on: MCF7; conditions: MCF7 (Breast Cancer)
# How it was run: as §1
# [10] = tested on: NCI-H322M; conditions: NCI-H322M (Non-Small Cell Lung Cancer)
# How it was run: as §1
# [11] = tested on: SNB-19; conditions: SNB-19 (CNS Cancer)
# How it was run: as §1
# [12] = tested on: SNB-75; conditions: SNB-75 (CNS Cancer)
# How it was run: as §1
# [13] = tested on: TK-10; conditions: TK-10 (Renal Cancer)
# How it was run: as §1
# [14] = tested on: U251; conditions: U251 (CNS Cancer)
# How it was run: as §1
# [15] = tested on: UO-31; conditions: UO-31 (Renal Cancer)
# How it was run: as §1
# [16] = read-out: LC50 (the source's name)
smiles,measurement,setting,value
CC1(C)C2CC[C@@]1(CS(=O)(=O)N(C1CCCCC1)C1CCCCC1)C(O)C2 (stereo partly drawn) [MT103],TGI,[1],>1.00E−04
same,IC50,[1]; read-out: G150,46.3 µM
same,CC50,[1]; [16],> 100 µM
same,TGI,[2],>1.00E−04
same,IC50,[2]; read-out: G150,23.8 µM
same,CC50,[2]; [16],> 100 µM
same,TGI,[3],>1.00E−04
same,IC50,[3]; read-out: G150,29.7 µM
same,CC50,[3]; [16],> 100 µM
same,TGI,[4],>1.00E−04
same,IC50,[4]; read-out: G150,30.5 µM
same,CC50,[4]; [16],> 100 µM
same,TGI,[5],8.33E−05
same,IC50,[5]; read-out: G150,19 µM
same,CC50,[5]; [16],> 100 µM
same,TGI,[6],>1.00E−04
same,IC50,[6]; read-out: G150,23.5 µM
same,CC50,[6]; [16],> 100 µM
same,TGI,[7],9.73E−05
same,IC50,[7]; read-out: G150,28.4 µM
same,CC50,[7]; [16],> 100 µM
same,TGI,[8],>1.00E−04
same,IC50,[8]; read-out: G150,67.8 µM
same,CC50,[8]; [16],> 100 µM
same,TGI,[9],9.05E−05
same,IC50,[9]; read-out: G150,20.6 µM
same,CC50,[9]; [16],> 100 µM
same,TGI,[10],>1.00E−04
same,IC50,[10]; read-out: G150,27.3 µM
same,CC50,[10]; [16],> 100 µM
same,TGI,[11],>1.00E−04
same,IC50,[11]; read-out: G150,68 µM
same,CC50,[11]; [16],> 100 µM
same,LC50 (concentration killing 50% of tumour cells),[12],> 100 µM
same,TGI,[12],8.83E−05
same,IC50,[12]; read-out: G150,19.5 µM
same,TGI,[13],9.02E−05
same,IC50,[13]; read-out: G150,21.6 µM
same,CC50,[13]; [16],> 100 µM
same,TGI,[14],>1.00E−04
same,IC50,[14]; read-out: G150,28.7 µM
same,CC50,[14]; [16],> 100 µM
same,TGI,[15],8.94E−05
same,IC50,[15]; read-out: G150,28 µM
same,CC50,[15]; [16],> 100 µM

# Reference: patent US20040266732A1, “Therapeutic agents, methods, and treatments” (priority 2002, published 2004)
